Read-outs that look alike come from different tables or passages of the source.
How the values were obtained:
[1] = test system: protein synthesis in mouse liver; conditions: actinomycin D 2 mg/kg 30 minutes before the test substance; cited from earlier work
[2] = test system: polyribosomes from the livers of mice; conditions: cited from earlier work
[3] = cited from earlier work
[4] = cited from earlier work; for effect on the sexual apparatus (ventral prostate weight, seminal vesicle weight): sexually immature intact rats
[5] = test system: C2C12 myotubes; experiment: Protein synthesis by radio-labeled leucine incorporation in C2C12 myotubes (Example 3); format: cell-based, mouse
[6] = test system: MCF7-AR1 cells; experiment: A-Screen bioassay: androgen-dependent inhibition of E2-induced proliferation; format: cell-based; conditions: Homo sapiens; in the presence of E2; read-out: IC50 of inhibition of cell proliferation
Procedure: In this example ATE and RCE were assessed for androgenic activity using the A-screeen assay. MCF7-AR1 is a human cancer-derived cell line which has been genetically engineered to overexpress the androgenic receptor (AR). […] This assay measures androgen-dependent inhibition of proliferation of the androgen receptor (AR)-positive human mammary carcinoma cell line, MCF7-AR1. This cell line has been stably transfected with a full human AR and expresses approximately five times more AR than wild-type cells. MCF7-AR1 cells retain the capacity to proliferate in response to estrogen treatment (E2). Androgens inhibit estrogen-induced proliferation and cells arrest in G0/G1 phase in a dose-dependent manner.
The A-Screen bioassay compares the cell number of similar inocula of MCF-7-AR1 cells growing in media in the absence of any estrogen and androgens (C−, negative control), in the presence of E2 (C+, estrogen control) and in the presence of E2 in combination with different concentrations of the suspected androgen (FIG. 11). Androgenic activity of a test compound results in the inhibition of cell proliferation compared to the E2 control.

[7] = test system: Caspase-3 (Casp3) gene expression in C2C12 muscle cells; experiment: Caspase-3 gene expression in C2C12 myotubes (RT2 Profiler PCR Array, Example 1); format: cell-based, mouse; conditions: 20 ppm ATE or 1 μM methandrostenolone, 6 h
Procedure: (§1) The effect of Ajuga turkestanica extract (ATE) standardized to Turkesterone content was studied in muscle cells. […] Cells between passages 3 and 10 were seeded at a density of 10,000 cells per cm^2. Cells were grown for 48 h until they reached 80-90% confluence. […] Cells were maintained at 37° C. in a humidified 5% CO2 incubator and medium was changed every other day.
(§2) For RNA extraction, C2C12 cells were plated and differentiated to myotubes into 12-wells plates. […] RNA was then extracted using an All Prep RNA/Protein Kit (Qiagen, Spain). Total RNA was quantified using a fluorometric method with Quant-iT kit (Invitrogen, Spain). RNA was stored at −80° C. until further use. cDNA was reverse-transcribed from the RNA extract using RT^2 First Stand cDNA kit and we used a RT^2 Profiler PCR Array to analyze a panel of 84 genes involved in skeletal muscle development and disease (Qiagen, Spain). Quantitative real-time RT-PCR was carried out using a SYBR-Green/ROX detection in a MX3005P Q-PCR System. Samples were heated at 95° C. for 10 min, followed by a second stage composed of 15 sec at 95° C., 1 min at 60° C. which was repeated 40 times and third stage for dissociation curve composed of 1 min at 95° C., 30 sec at 55° C. and 30 sec at 95° C. The PCR-array data was analyzed by calculating relative gene expression and statistical significance through the use of known methods.

[8] = test system: myostatin (Mstn) gene expression in C2C12 muscle cells; experiment: Myostatin gene expression in C2C12 myotubes (RT2 Profiler PCR Array, Example 1); format: cell-based, mouse; conditions: 20 ppm ATE or 1 μM methandrostenolone, 6 h
Procedure: as §1, §2

[9] = test system: Caspase-3 expression in C2C12 myotubes; experiment: Caspase 3 expression in C2C12 myotubes (quantitative RT-PCR, Example 4); format: cell-based, mouse; conditions: 24 hours; extracts and turkesterone 0.002, 0.02 and 2 ppm, 20HE 0.001, 0.01 and 1 ppm
Procedure: Experiments similar to those in example 1 have been carried out with two other plant-derived, ecdysteroid-rich extracts. […] Cells between passages 3 and 10 were seeded at a density of 10,000 cells per cm^2. Cells were grown for 48 h until they reached 80-90% confluence. […] Cells were maintained at 37° C. in a humidified 5% CO2 incubator and medium was changed every other day.
For RNA and protein extraction C2C12 myotubes were incubated with 0.002, 0.02 and 2 ppm of Rhaponticum carthamoides extract (RCE) and Cyanotis arachnoidea extract (CAE) or 0.001, 0.01 and 1 ppm of 20-hydroxyecdysone or 0.002, 0.02 and 2 ppm of Turkesterone for 24 hours. These two latter served as positive controls. RNA and protein were extracted using All Prep RNA/Protein Kit (Qiagen, Spain). RNA was stored at −80° C. and protein at −20° C. until further use. Total RNA was quantified using a fluorometric method with Quant-iT kit (Invitrogen, Spain). The cDNA was reverse-transcribed from the RNA extract using RT^2First Stand cDNA kit (Qiagen, Spain). Quantitative real-time RT-PCR for Caspase-3 and Myostatin were carried out using a MX3005P Q-PCR System (Agilent Technologies) and SYBR-Green/ROX detection. The housekeeping gene used was Actb and Mouse XpressRef Universal total RNA (Qiagen, Spain) as a positive control. […] The fold change in gene expression was calculated with ΔΔCt Method.

[10] = castrated sexually immature rats
[11] = sexually immature intact rats, 0.5 mg per 100 g intragastrically daily for 10 days
[12] = sexually mature male rats, 0.5 mg per 100 g intragastrically daily for 10 days

Compound	effect of actinomycin D on the stimulation of liver protein synthesis [1]	ratio of test to control (weight gain) [3, 10]	weight gain [3, 11]	ratio of test to control (weight gain) ([3]; sexually immature intact rats)	total protein content of organs ([3]; sexually immature intact rats)	weight of the ventral prostate and seminal vesicles [4, 10]	effect on the sexual apparatus (ventral prostate weight, seminal vesicle weight) [4]	weight of the ventral prostate and seminal vesicles [4, 12]	IC50 [6] [nM]	further results
C[C@]12C=CC(=O)C=C1CC[C@@H]1[C@@H]2CC[C@@]2(C)[C@H]1CC[C@]2(C)O [Nerobol]	almost totally removed the effect									increase of protein synthesis in the system of polyribosomes and cellular fluid from livers of treated animals ([2]; mice, Nerobol 1.0 mg/100 g, P<0.001): 14%
turkesterone tetraacetate		1.9	37.2 mg per 1 g initial weight per day	2.5	statistically significant increase	did not change	pronounced effect	did not change significantly		heart weight and weight of the anterior tibial muscle [3, 12]: statistically significant increase
C[C@]12C=CC(=O)C=C1CC[C@@H]1[C@@H]2CC[C@@]2(C)[C@H]1CC[C@]2(C)O [methandrostenolone]									0.35	effect on protein synthesis ([5]; concentrations up to 10 μM): no significant effect; down-regulation of caspase-3 [7]: < 2 fold; down-regulation of Myostatin [8]: < 2 fold
CC(C)(O)CC[C@@H](O)[C@](C)(O)[C@H]1CC[C@@]2(O)C3=CC(=O)[C@@H]4C[C@@H](O)[C@@H](O)C[C@]4(C)[C@H]3[C@H](O)C[C@]12C [turkesterone]	no noticeable effect	1.8	38 mg per 1 g initial weight per day	2.6	statistically significant increase	did not change	pronounced effect	did not change significantly		protein synthesis, % of control ([5]; 40 nM): 110 % of control; protein synthesis, % of control (peak effect) ([5]; 0.1 μM): 120 % of control; body weight gain [3, 12]: 9.7 mg per 1 g weight per day; body weight gain relative to control [3, 12]: 2 times; regulation of Caspase 3 expression [9]: significant effect in down regulation; ratio of translating to nontranslating ribosomes ([2]; mouse liver, control group 3.98): 3.80
C[C@]1(O)CC[C@H]2[C@@H]3CCC4=CC(=O)CCC4=C3C=C[C@@]21C [Example R1881, methyltrienolone]									0.02	
